Activity change, negative = cytotoxicity data for 70 molecules are collected here from PubChem BioAssay AID720588 (Broad Institute, 2013).

The source made the active and inactive calls.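 How the source made its calls: active means fitted curve falls past a set limit of signal loss at no more than twice the top dose; inconclusive means flat fit between 30 and 70% signal loss, or poor fit; inactive means signal rise, flat within 30%, or crossing too high.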

A short description of one assay: HEK293T cell cytotoxicity, dose response, cytotoxicity control, CellTiter-Glo luminescence, cherry-pick, set 3 (AID 720588). To be noted: HEK293T viability, CellTiter-Glo ATP luminescence, 72 h; at 21 µM (top of the series). For orientation: ATP-based viability assays read luminescence as a measure of living cells.
With `C[C@H]1CN([C@@H](C)CO)C(=O)Cc2cc(NC(=O)CCC(F)(F)F)ccc2O[C@H]1CN(C)Cc1ccc(C(=O)Nc2ccccc2N)cc1`, the activity change, negative = cytotoxicity is -31.3% (inactive).

The same assay, now with this note: HEK293T viability, CellTiter-Glo ATP luminescence, 72 h; at 26 µM (top of the series).
Consider `N/C(Cc1nc(-c2ccc(F)cc2)cs1)=N\O`, for which the activity change, negative = cytotoxicity was -17.4% (inactive). On the same count and under the same terms, the figure for `O=C1C(=O)N(Cc2cccs2)c2ccccc21` is -25.8% (inactive); for `CN(C)c1ccc(-c2ccnc3c2CC(C)(C(=O)NCc2ccco2)O3)cc1` (stereo not given) it is -32.8% (inactive); for `CCOc1ccccc1CNC(=O)c1ccc(Sc2ccc(Cl)cc2)c(NC(C)=O)c1` it is -4.6% (inactive).

`CCCCOc1ccc(NC(=O)C(=O)NCCCn2ccnc2)cc1`: the activity change, negative = cytotoxicity was -3.53% (inactive). Still for that read-out and setting: the figure for `COc1cc(/C=C/C(=O)/C=C(O)/C=C/c2ccc(O)c(OC)c2)ccc1O` is -35.9% (inactive). As for `COc1ccc(S(=O)(=O)N=Nc2c(O)[nH]c3ccccc23)cc1`, the activity change, negative = cytotoxicity is 16.2% (inactive). Same read-out and setting: the value for `O=C(C[C@@H]1CC[C@@H]2[C@H](COC[C@@H](O)CN2S(=O)(=O)c2ccc(F)cc2)O1)NCc1ccc(Cl)c(Cl)c1` was 2.6% (inactive); that for `C[C@@H]1CN([C@@H](C)CO)C(=O)c2cccc(NC(=O)Nc3ccccc3)c2O[C@@H]1CN(C)Cc1ccc(-c2ccccc2)cc1` was -22.7% (inactive); that for `CN1C/C(=C/c2ccsc2)C(=O)/C(=C/c2ccsc2)C1` was -30% (inactive). Still for that read-out and setting: the value for `Cc1ccc(/C=C2\SC(=S)N(CCCC(=O)NNC(=O)c3ccccc3O)C2=O)cc1` was -14.6% (inactive); that for `COc1ccc(C/C(N)=N/OC(C)=O)cc1OC` was -1.12% (inactive); that for `C[C@H]1CN([C@@H](C)CO)C(=O)c2cccc(NC(=O)CCCCCC(=O)Nc3ccccc3N)c2O[C@@H]1CN(C)Cc1ccc2c(c1)OCO2` was -20.1% (inactive). Still for that read-out and setting: the figure for `O=C(c1cccc(S(=O)(=O)NCc2ccccc2)c1)N1CCN(c2ccccc2)CC1` is -21.2% (inactive). On to `Cc1c(Cl)cnc(NC(=O)COC(=O)c2ccc3ncsc3c2)c1Cl`, for which the activity change, negative = cytotoxicity was 13.6% (inactive). For the molecule `Cc1occc1-c1n[nH]c(=S)n1C`, the activity change, negative = cytotoxicity is -10.6% (inactive).

On to `COc1ccc(CCCNC(=O)C2Cc3c(-c4ccc5c(c4)OCO5)ccnc3O2)cc1` (stereo not given), for which the activity change, negative = cytotoxicity is -7% (inactive). Same read-out and setting: the figure for `Cc1c(N=Cc2cc(Br)cc(Br)c2O)cccc1C(=O)O` is 6.56% (inactive); for `COc1ccc2nc(-c3ccc(F)cc3)sc2c1` it is -5.49% (inactive); for `COC(=O)C[C@@H]1CC[C@@H]2[C@H](COc3ccc(NC(=O)c4cc(C)on4)cc3C(=O)N2C)O1` it is -12.8% (inactive). Still for that read-out and setting: the value for `CN(C)C(=S)N=Nc1[nH]c2ccccc2c1O` was 7.38% (inactive). On the same count and under the same terms, the value for `Cc1noc(C)c1C(=O)Nc1sccc1C(N)=O` was 18% (inactive); that for `CCS(=O)(=O)N1Cc2ccccc2CC1C(=O)Nc1nnc(SCc2ccc(C#N)cc2)s1` (stereo not given) was -8.94% (inactive). For the molecule `COc1ccc(NC(=O)N(C)[C@H]2C[C@H]3c4[nH]c5ccccc5c4CCN3C(=O)[C@H]2CO)cc1`, the activity change, negative = cytotoxicity was -20.7% (inactive). Still for that read-out and setting: the value for `C[C@@H]1CN([C@@H](C)CO)S(=O)(=O)c2ccc(C#Cc3ccncc3)cc2O[C@H]1CN(C)C(=O)C1CCOCC1` was 19.2% (inactive).

As to `O=c1[nH]c(=O)n([C@H]2C[C@H](O)[C@@H](CO)O2)cc1C(F)(F)F`, the activity change, negative = cytotoxicity is -10.4% (inactive).

Consider `C[C@@H]1CN([C@H](C)CO)C(=O)c2cc(NC(=O)CCCCCC(=O)Nc3ccccc3N)ccc2O[C@H]1CN(C)S(=O)(=O)c1ccc(Cl)cc1`, for which the activity change, negative = cytotoxicity was -21.5% (inactive). On the same count and under the same terms, the value for `O=C(Cc1nn[nH]n1)c1ccccc1O` was 1.92% (inactive); that for `N#CC1=C(N)Oc2cc(N)ccc2C1c1cccc(F)c1` (stereo not given) was -13.6% (inactive); that for `C(=C\c1ccc(C2[C@H]3CNC[C@@H]2N3Cc2ccccn2)cc1)/c1ccccc1` (stereo not given in full) was 39.5% (inactive). Consider `COC(=O)C[C@@H]1CC[C@@H]2[C@@H](COc3ccc(NC(=O)Nc4cccc(C#N)c4)cc3C(=O)N2C)O1`, for which the activity change, negative = cytotoxicity is 16.9% (inactive). The same measure, in the same setting: the value for `CN(c1ccc(NC(=O)CCc2c[nH]c3ccccc23)cc1)c1ccccn1` was -4.8% (inactive); that for `CC(NC(=O)c1ccco1)c1nc(-c2ccc(C(C)(C)C)cc2)no1` (stereo not given) was -23% (inactive). Same read-out and setting: the value for `COc1ccc(C2=Nn3c(nnc3-c3ccccc3OC)SC2)cc1OCC1CC1` was -31.8% (inactive); that for `COC(=O)[C@H]1[C@H](CO)[C@H]2Cn3c(ccc(-c4ccccc4F)c3=O)[C@@H]1N2CC1CCCC1` was 56.8% (inactive). Same read-out and setting: the figure for `O=C(N/N=C/c1cccs1)c1n[nH]c2c1CCCC2` is -10.2% (inactive). Take `COc1ccc(OC)c(-c2cc(C(F)(F)F)c3c(n2)sc2c(O)cc(=O)[nH]c23)c1`: the activity change, negative = cytotoxicity is 2.36% (inactive). Same read-out and setting: the figure for `C[C@H](CO)N1C[C@H](C)[C@H](CN(C)CC2CCCCC2)Oc2ccc(NC(=O)Nc3cccc4ccccc34)cc2C1=O` is -16.8% (inactive). Still for that read-out and setting: the value for `COc1ccc(/C=C2\SC(=O)N(CCCC(=O)Nc3ccc(C(=O)O)cc3)C2=O)cc1` was -14.1% (inactive); that for `CC(C)NC(=O)N(C)C[C@@H]1Oc2cc(C#Cc3ccc(F)cc3)ccc2S(=O)(=O)N([C@H](C)CO)C[C@H]1C` was -0.81% (inactive).

For the molecule `COc1cc(/C=N/NS(=O)(=O)c2ccc(C)cc2)ccc1OCc1cccc(C(=O)O)c1`, the activity change, negative = cytotoxicity was 5.87% (inactive).

Turning to `CCOc1cc2[nH]c(=S)n(Cc3ccc(C(=O)N4CCN(C)CC4)cc3)c(=O)c2cc1OCC`, the activity change, negative = cytotoxicity is -20.5% (inactive).

Consider `O=C1NC(=O)N(CCc2ccc(F)cc2)C(=O)/C1=C/C=C/c1ccccc1`, for which the activity change, negative = cytotoxicity is -10.7% (inactive). Same read-out and setting: the figure for `N#C[C@@H]1[C@H](c2ccc(C#Cc3cccc(F)c3)cc2)[C@@H](CO)N1C(=O)C1CCCC1` is 38% (inactive). The same measure, in the same setting: the value for `CCN1C/C(=C/c2ccc(OC)c(O)c2)C(=O)/C(=C/c2ccc(OC)c(O)c2)C1` was -23.5% (inactive).

Take `CCc1ccc(Cn2ncc3c(C(=O)O)cc(C)nc32)cc1`: the activity change, negative = cytotoxicity is -2.66% (inactive). As to `C[C@@H]1CN([C@H](C)CO)S(=O)(=O)c2ccc(C#Cc3ccncc3)cc2O[C@@H]1CN(C)C(=O)Nc1ccc2c(c1)OCO2`, the activity change, negative = cytotoxicity was -4.95% (inactive). With `O=C(O)c1ccc(N/N=C/c2ccc(OC(=O)c3cccc(Cl)c3)cc2)cc1`, the activity change, negative = cytotoxicity is -29.8% (inactive). As to `CCNC(=O)c1cccc(S(=O)(=O)N2CCCCCC2)c1`, the activity change, negative = cytotoxicity is -6.96% (inactive). Still for that read-out and setting: the value for `CCN(CC)C(=O)CN1C(=O)C(=O)c2ccccc21` was -11% (inactive). `O=c1c2ccccc2oc2ccc(C#CC3(O)CCCCC3)cc12`: the activity change, negative = cytotoxicity is -6.65% (inactive). `C[C@@H]1CCCCO[C@H](CN(C)Cc2ccc(C(=O)Nc3ccccc3N)cc2)[C@@H](C)CN([C@@H](C)CO)C(=O)c2cc(NS(=O)(=O)c3ccc(Cl)cc3)ccc2O1`: the activity change, negative = cytotoxicity is -25.9% (inactive). As to `CN(C)c1ccc(N=Nc2ccccc2Br)cc1`, the activity change, negative = cytotoxicity was -16.8% (inactive). On the same count and under the same terms, the value for `CCCC[C@@H]1Cc2[nH][nH]c(=O)c2[C@H](c2ccc3ccccc3c2)O1` was 16.6% (inactive). As to `CN(C(=O)COC(=O)c1cc(-c2ccccc2Cl)nc2ccccc12)C1CCS(=O)(=O)C1` (stereo not given), the activity change, negative = cytotoxicity is -26.1% (inactive). For the molecule `Cc1c(Cc2ccc3c(c2)OCO3)sc(NC(=O)C(C)(C)C)c1C#N`, the activity change, negative = cytotoxicity was -13.7% (inactive). The same measure, in the same setting: the figure for `Cc1noc(C)c1NC(=O)Nc1ccc2c(c1)CC(=O)N([C@@H](C)CO)C[C@@H](C)[C@@H](CN(C)Cc1ccc(Cl)c(Cl)c1)O2` is 61.4% (inactive); for `CCCn1nnc(NC(=S)NC(=O)C(C)(C)C)n1` it is -9.98% (inactive).

As to `CCc1ccc(/C=C2\SC(=S)N(CCCC(=O)NC3=NCCS3)C2=O)cc1`, the activity change, negative = cytotoxicity is -17.5% (inactive). The same measure, in the same setting: the figure for `C[C@H]1CN([C@@H](C)CO)C(=O)c2cccc(NC(=O)c3ccc(-c4nccs4)cc3)c2O[C@@H]1CN(C)Cc1ccc(C(=O)Nc2ccccc2N)cc1` is 28.9% (inactive); for `Cc1ccc(S(=O)(=O)N(C)C[C@H]2Oc3c(cccc3N(C)C)C(=O)N([C@@H](C)CO)C[C@@H]2C)cc1` it is -21% (inactive).

As for `CC(C)Oc1ccc(Br)cc1C(=O)N/N=C/c1c[nH]c2ccccc12`, the activity change, negative = cytotoxicity was -16.4% (inactive).

Turning to `Brc1ccc(CSc2nnc(-c3ccco3)o2)cc1`, the activity change, negative = cytotoxicity was -18% (inactive). Take `Cc1ccccc1NC(=O)C(=Cc1ccc(C(=O)O)cc1)C(=O)Nc1ccccc1C`: the activity change, negative = cytotoxicity was -47.2% (inactive). Same read-out and setting: the value for `O=c1oc2cc(O)ccc2s1` was -7.52% (inactive); that for `COc1cc(-c2coc3c(C(=O)NCc4ccc(C(F)(F)F)cc4)cccc23)ccc1O` was -23% (inactive). Same read-out and setting: the value for `CN(C)[C@@H]1CCC[C@@H]1OC(=O)C(c1ccccc1)c1ccccc1` was -11.6% (inactive); that for `Cc1ccccc1N=CC1=C(O)c2ccccc2C1=O` was 1.79% (inactive).

For the molecule `CCOc1ccc(N=C2C(=O)Nc3ccc(C)c(Br)c32)cc1`, the activity change, negative = cytotoxicity was -10.6% (inactive).
